Source: US11440923B2, “Substituted macrocyclic indole derivatives” (Bayer Aktiengesellschaft, priority 2017, dated 2022)
Structures can show the parent of a compound that is named as a salt. Where two headings read alike, the source gives them in different places.

Tests used:
SUDHL5 cells [1] = experiment: Antiproliferation assay SUDHL5 (Assay 7); format: cell-based
Summary of the method: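 72 h antiproliferation, 37 °C, CellTiter-Glo luminescence. Day 0 plate = CI; DMSO = C0; IC50 calculated from these.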

BCL-XL = BCL-XL (Homo sapiens (Human), UniProt Q07817); experiment: Protein-protein interaction assay BCL-XL/Bad BH3 peptide (BCL-XL assay, TR-FRET); format: binding; conditions: read-out: BCL-XL Assay IC50 (median)
Chain of BCL-XL (Q07817 1-212): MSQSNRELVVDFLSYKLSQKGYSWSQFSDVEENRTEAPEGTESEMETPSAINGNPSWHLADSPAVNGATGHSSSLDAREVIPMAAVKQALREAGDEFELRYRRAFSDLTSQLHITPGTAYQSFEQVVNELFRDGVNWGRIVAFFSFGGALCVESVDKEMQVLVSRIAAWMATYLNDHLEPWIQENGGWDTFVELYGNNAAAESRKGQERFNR
Summary of the method: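 TR-FRET competition: 1 nM His-tagged human BCL-XL (1-212) versus 1 nM biotin-PEG Bad BH3 peptide tracer, buffer 50 mM Tris pH 7, NaCl, KF, DTT. Compound preincubated with protein 10 min at 22 °C; read after 1 h at 22 °C plus overnight at 4 °C. IC50 by 4-parameter regression of normalized ratios.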

SUDHL5 cells [2] = experiment: Induction of caspase-3/7 activity in SUDHL5 cells (Assay 4); format: cell-based
Summary of the method: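 Read-out: Caspase-Glo 3/7 luminescence (1 h, 37 °C) after cells, plated overnight, were treated with compounds for 3 h at 37 °C. Signal corrected for cell-free medium background and expressed relative to DMSO control mean.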

[3] = 72 h, CellTiter-Glo, read-out: Antiproli SUDHL5 IC50 (median)
[4] = caspase-3/7 induction, 3 h; read-out: Caspase SUDHL5 EC50 (median)
[5] = Homo sapiens, SU-DHL-5, 72 h, 72 h, CellTiter-Glo, read-out: Antiproli SUDHL5 IC50 (median)
[6] = Homo sapiens, SU-DHL-5, 3 h, caspase-3/7 induction, 3 h; read-out: Caspase SUDHL5 EC50 (median)
[7] = Homo sapiens, SU-DHL-5, 72 h, read-out: Antiproli SUDHL5 IC50 (median), 72 h, CellTiter-Glo
[8] = read-out: Caspase SUDHL5 EC50 (median); caspase-3/7 induction, 3 h
[9] = read-out: Antiproli SUDHL5 IC50 (median), 72 h, CellTiter-Glo

Row | Structure (SMILES) | IC50 (SUDHL5 cells [1]; [3]) [µM] | IC50 (BCL-XL) [µM] | EC50 (SUDHL5 cells [2]; [4]) [µM] | IC50 (SUDHL5 cells [1]; [5]) [µM] | EC50 (SUDHL5 cells [2]; [6]) [µM] | IC50 (SUDHL5 cells [1]; [7]) [µM] | EC50 (SUDHL5 cells [2]; [8]) [µM] | IC50 (SUDHL5 cells [1]; [9]) [µM]
1 | CCc1c2c(nn1C)C(CCN1CCOCC1)OCCCCn1c(C(=O)O)c(CCCOc3cccc4cc(F)ccc34)c3ccc(F)c-2c31 (single isomer, unassigned; enantiomer 2) [Example 51, (−)-3-ethyl-4-fluoro-7-{3-[(6-fluoronaphthalen-1-yl)oxy]propyl}-2-methyl-15-[2-(morpholin-4-yl)ethyl]-2,10,11,12,13,15-hexahydropyrazolo[4′,3′:9,10][1,6]oxazacycloundecino[8,7,6-hi]indole-8-carboxylic Acid (Enantiomer 2)] | 2.3 | > 20 | 5 | – | – | – | – | –
2 | Cc1c2c(nn1C)C(CCO)OCCCCn1c(C(=O)O)c(CCCOc3cccc4ccccc34)c3ccc(Cl)c-2c31 (racemic) [Example 26, (rac)-4-chloro-15-(2-hydroxyethyl)-2,3-dimethyl-7-{3-[(naphthalen-1-yl)oxy]propyl}-2,10,11,12,13,15-hexahydropyrazolo[4′,3′:9,10][1,6]oxazacycloundecino[8,7,6-hi]indole-8-carboxylic Acid] | – | > 20 | – | 0.41 | 0.12 | – | – | –
3 | CCc1c2c(nn1C)C(CCOC)OCCCCn1c(C(=O)O)c(CCCOc3cccc4cc(F)ccc34)c3ccc(Cl)c-2c31 (single isomer, unassigned; enantiomer 1) [Example 42, (+)-4-chloro-3-ethyl-7-{3-[(6-fluoronaphthalen-1-yl)oxy]propyl}-15-(2-methoxyethyl)-2-methyl-2,10,11,12,13,15-hexahydropyrazolo[4′,3′:9,10][1,6]oxazacycloundecino[8,7,6-hi]indole-8-carboxylic Acid—N-ethylethanamine Salt (Enantiomer 1)] | – | 15 | – | – | – | 0.052 | 0.014 | –
4 | CCc1c2c(nn1C)C(CC(C)(C)O)OCCCCn1c(C(=O)O)c(CCCOc3cccc4cc(F)ccc34)c3ccc(Cl)c-2c31 (single isomer, unassigned; enantiomer 1) [Example 53, (+)-4-chloro-3-ethyl-7-{3-[(6-fluoronaphthalen-1-yl)oxy]propyl}-15-(2-hydroxy-2-methylpropyl)-2-methyl-2,10,11,12,13,15-hexahydropyrazolo[4′,3′:9,10][1,6]oxazacycloundecino[8,7,6-hi]indole-8-carboxylic Acid—N-ethylethanamine Salt (Enantiomer 1)] | – | 11 | – | – | – | – | 0.076 | 0.099
5 | Cc1c2c(nn1C)C(CCN1CCOCC1)OCCCCn1c(C(=O)O)c(CCCOc3cccc4ccccc34)c3ccc(Cl)c-2c31 (single isomer, unassigned; enantiomer 2) [Example 15, 4-chloro-2,3-dimethyl-15-[2-(morpholin-4-yl)ethyl]-7-{3-[(naphthalen-1-yl)oxy]propyl}-2,10,11,12,13,15-hexahydropyrazolo[4′,3′:9,10][1,6]oxazacycloundecino[8,7,6-hi]indole-8-carboxylic Acid (Enantiomer 2)] | 2.5 | > 20 | 2.3 | – | – | – | – | –
6 | CCc1c2c(nn1C)C(CCC1CCOCC1)OCCCCn1c(C(=O)O)c(CCCOc3cccc4cc(F)ccc34)c3ccc(Cl)c-2c31 (racemic) [Example 60, (rac)-4-chloro-3-ethyl-7-{3-[(6-fluoronaphthalen-1-yl)oxy]propyl}-2-methyl-(15-rac)-[2-(oxan-4-yl)ethyl]-2,10,11,12,13,15-hexahydropyrazolo[4′,3′:9,10][1,6]oxazacycloundecino[8,7,6-hi]indole-8-carboxylic Acid] | – | 15.4 | – | 0.065 | 0.05 | – | – | –
7 | Cc1c2c(nn1C)C(CCO)OCCCCn1c(C(=O)O)c(CCCOc3cccc4ccccc34)c3ccc(Cl)c-2c31 (single isomer, unassigned; enantiomer 1) [Example 31, (+)-4-chloro-15-(2-hydroxyethyl)-2,3-dimethyl-7-{3-[(naphthalen-1-yl)oxy]propyl}-2,10,11,12,13,15-hexahydropyrazolo[4′,3′:9,10][1,6]oxazacycloundecino[8,7,6-hi]indole-8-carboxylic Acid (Enantiomer 1)] | 0.24 | > 20 | 0.28 | – | – | – | – | –
8 | COCCC1OCCCCn2c(C(=O)O)c(CCCOc3cccc4ccccc34)c3ccc(Cl)c(c32)-c2c1nn(C)c2C (racemic) [Example 37, (rac)-4-chloro-(15-rac)-(2-methoxyethyl)-2,3-dimethyl-7-{3-[(naphthalen-1-yl)oxy]propyl}-2,10,11,12,13,15-hexahydropyrazolo[4′,3′:9,10][1,6]oxazacycloundecino[8,7,6-hi]indole-8-carboxylic Acid] | – | 17.1 | – | 0.51 | 0.25 | – | – | –
9 | CCc1c2c(nn1C)C(CCO)OCCCCn1c(C(=O)O)c(CCCOc3cccc4cc(F)ccc34)c3ccc(Cl)c-2c31 (racemic) [Example 44, (rac)-4-chloro-3-ethyl-7-{3-[(6-fluoronaphthalen-1-yl)oxy]propyl}-(15-rac)-(2-hydroxyethyl)-2-methyl-2,10,11,12,13,15-hexahydropyrazolo[4′,3′:9,10][1,6]oxazacycloundecino[8,7,6-hi]indole-8-carboxylic Acid] | – | 12.5 | – | 0.14 | 0.12 | – | – | –
10 | CCc1c2c(nn1C)C(CCN1CCC(F)(F)C1)OCCCCn1c(C(=O)O)c(CCCOc3cccc4cc(F)ccc34)c3ccc(Cl)c-2c31 (single isomer, unassigned; enantiomer 1) [Example 56, 4-chloro-15-[2-(3,3-difluoropyrrolidin-1-yl)ethyl]-3-ethyl-7-{3-[(6-fluoronaphthalen-1-yl)oxy]propyl}-2-methyl-2,10,11,12,13,15-hexahydropyrazolo[4′,3′:9,10][1,6]oxazacycloundecino[8,7,6-hi]indole-8-carboxylic Acid—N-ethylethanamine Salt (Enantiomer 1)] | – | > 20 | – | – | – | – | 0.018 | 0.087
11 | CCc1c2c(nn1C)C(CCN1CCC(F)(F)C1)OCCCCn1c(C(=O)O)c(CCCOc3cccc4cc(F)ccc34)c3ccc(Cl)c-2c31 (racemic) [Example 55, (rac)-4-chloro-(15-rac)-[2-(3,3-difluoropyrrolidin-1-yl)ethyl]-3-ethyl-7-{3-[(6-fluoronaphthalen-1-yl)oxy]propyl}-2-methyl-2,10,11,12,13,15-hexahydropyrazolo[4′,3′:9,10][1,6]oxazacycloundecino[8,7,6-hi]indole-8-carboxylic acid—2-hydroxypropane-1,2,3-tricarboxylic Acid Salt] | – | > 20 | – | 0.067 | 0.032 | – | – | –
12 | CCC1OCCCCn2c(C(=O)O)c(CCCOc3cccc4ccccc34)c3ccc(Cl)c(c32)-c2c1nn(C)c2C (racemic) [Example 25, (rac)-4-chloro-15-ethyl-2,3-dimethyl-7-{3-[(naphthalen-1-yl)oxy]propyl}-2,10,11,12,13,15-hexahydropyrazolo[4′,3′:9,10][1,6]oxazacycloundecino[8,7,6-hi]indole-8-carboxylic Acid] | – | > 20 | – | 2.3 | 2 | – | – | –
13 | CCc1c2c(nn1C)C(CCN1CCOCC1)OCCCCn1c(C(=O)O)c(CCCOc3cccc4ccccc34)c3ccc(F)c-2c31 (single isomer, unassigned; enantiomer 2) [Example 12, 3-ethyl-4-fluoro-2-methyl-15-[2-(morpholin-4-yl)ethyl]-7-{3-[(naphthalen-1-yl)oxy]propyl}-2,10,11,12,13,15-hexahydropyrazolo[4′,3′:9,10][1,6]oxazacycloundecino[8,7,6-hi]indole-8-carboxylic Acid—N-ethylethanamine Salt (Enantiomer 2)] | – | > 20 | – | – | – | – | 2.7 | 2.6
14 | Cc1c2c(nn1C)C(C)OCCCCn1c(C(=O)O)c(CCCOc3cccc4ccccc34)c3cccc-2c31 (single isomer, unassigned; stereoisomer 2) [Example 3, 2,3,15-trimethyl-7-[3-(naphthalen-1-yloxy)propyl]-2,10,11,12,13,15-hexahydropyrazolo[4′,3′:9,10][1,6]oxazacycloundecino[8,7,6-hi]indole-8-carboxylic Acid Trifluoroacetic Acid Salt (Stereoisomer 2)] | – | > 20 | – | – | – | – | > 33 | 20
15 | CCc1c2c(nn1C)C(C1CC1)OCCCCn1c(C(=O)O)c(CCCOc3cccc4cc(F)ccc34)c3ccc(Cl)c-2c31 (single isomer, unassigned; enantiomer 1) [Example 39, (+)-4-chloro-15-cyclopropyl-3-ethyl-7-{3-[(6-fluoronaphthalen-1-yl)oxy]propyl}-2-methyl-2,10,11,12,13,15-hexahydropyrazolo[4′,3′:9,10][1,6]oxazacycloundecino[8,7,6-hi]indole-8-carboxylic Acid—N-ethylethanamine Salt (Enantiomer 1)] | – | 18.1 | – | – | – | 0.88 | 0.75 | –
